biological target: T1, chicken gizzard smooth muscle myosin subfragment-1 chemically crosslinked to either cardiac or skeletal actin (Gallus gallus, UniProt P10587); assay: Dose dependent smooth muscle myosin ATPase modulation (pyruvate kinase/horseradish peroxidase/pyruvate oxidase-coupled ATPase assay); assay type: biochemical; settings: read-out: IC50 Arithmetic Mean
T1 construct: chicken gizzard smooth muscle myosin subfragment-1; from tissue; host or cells: chicken gizzard
Experimental: In Vitro Model of Dose Dependent Smooth Muscle Myosin Atpase Modulation
Screening assays were performed using a pyruvate kinase and lactate dehydrogenase-coupled ATPase assay containing the following reagents: Potassium PIPES (50 mM ), MgCl2 (3 mM ), KCl (100 mM ), ATP (0.15 mM ), DTT (1 mM ), BSA (0.1 mg/ml), NADH (0.5 mM ), PEP (1.5 mM ), pyruvate kinase (4 U/ml), lactate dehydrogenase (8 U/ml), and antifoam (50 ppm) (concentrations expressed are final assay concentrations). The pH was adjusted to 6.80 at 22° C. by addition of potassium hydroxide. Lead optimization assays were performed with a more sensitive pyruvate kinase/horseradish peroxidase/pyruvate oxidase-coupled ATPase assay containing the following reagents: Potassium PIPES (12 mM ), MgCl2 (2 mM ), KCl (100 mM ), ATP (0.15 mM ), BSA (0.05 mg/ml), potassium phosphate (2 mM ), amplex red (0.1 mM ), PEP (0.1 mM ), pyruvate kinase (4 U/ml), horseradish peroxidase (0.5 U/ml), pyruvate oxidase (0.5 U/ml), and antifoam (50 ppm) (concentrations expressed are final assay concentrations). The pH was adjusted to 7.00 at 22° C. by addition of potassium hydroxide.
The protein components specific to this assay are chicken gizzard smooth muscle myosin subfragment-1 that has been chemically crosslinked to either cardiac or skeletal actin using an excess of 1-Ethyl-3-[3-dimethylaminopropyl]carbodiimide hydrochloride and N-hydroxysuccinimide. The exact concentration of the crosslinked smooth muscle myosin in the assay is determined empirically, by titration to achieve a desired rate of ATP hydrolysis. The concentration varies between protein preparations due to variations in the fraction of active molecules in each preparation.
Compound dose response assays are performed by first preparing a dilution series of test compound, each with an assay mixture containing potassium PIPES, MgCl2, KCl, ATP, BSA, potassium phosphate, amplex red, PEP, crosslinked smooth muscle actomyosin (subfragment-1), antifoam, and water. The assay is started by adding an equal volume of solution containing potassium Pipes, MgCl2, KCl, BSA, potassium phosphate, pyruvate kinase, horseradish peroxidase, pyruvate oxidase, antifoam, and water. ATP hydrolysis is monitored by measuring the fluorescence of amplex red (excitation at 480 nm, emission at 615 nm). The resulting dose response curve is fit by the 4 parameter equation y=Bottom+((Top−Bottom)/(1+((IC50/X)^Hill))). The IC50 is defined as the concentration at which ATPase activity is midway between the top and bottom of the dose response curve.

Structure (SMILES) | IC50 [nM]
O=C(NCc1cccnc1)c1ccc(N2CC[C@H](CO)C2)nc1NCCc1cccc(F)c1 [Compound 27, (6-[(3S)-3-(hydroxymethyl)pyrrolidinyl]-2-{[2-(3-fluorophenyl)ethyl]amino}(3-pyridyl))-N-(3-pyridylmethyl)carboxamide] | 465
CNC(=O)CNC(=O)c1ccc(N2CCCC2)nc1NCCc1cccc(F)c1 [Compound 28, 2-[(2-{[2-(3-fluorophenyl)ethyl]amino}-6-pyrrolidinyl(3-pyridyl))carbonylamino]-N-methylacetamide] | 329
O=C(NCc1cccnc1)c1ccc(N2CC=CC2)nc1NCCc1cccc(F)c1 [Compound 29, (2-{[2-(3-fluorophenyl)ethyl]amino}-6-(3-pyrrolinyl)(3-pyridyl))-N-(3-pyridylmethyl)carboxamide] | 154
N[C@H]1CCN(c2ccc(C(=O)NCc3cccnc3)c(NCCc3cccc(F)c3)n2)C1 [Compound 30, (6-((3S)-3-aminopyrrolidinyl)-2-{[2-(3-fluorophenyl)ethyl]amino}(3-pyridyl))-N-(3-pyridylmethyl)carboxamide] | 28400
CN(C)C(=O)N[C@@H]1CCN(c2ccc(C(=O)NCc3cccnc3)c(NCCc3cccc(F)c3)n2)C1 [Compound 31, N-[(3R)-1-(6-{[2-(3-fluorophenyl)ethyl]amino}-5-[N-(3-pyridylmethyl)carbamoyl](2-pyridyl))pyrrolidin-3-yl](dimethylamino)carboxamide] | 67800
O=C(NCc1cccnc1)c1ccc(N2CCC2)nc1NCCc1cccc(F)c1 [Compound 32, (6-azetidinyl-2-{[2-(3-fluorophenyl)ethyl]amino}(3-pyridyl))-N-(3-pyridylmethyl)carboxamide] | 1170
O=C(NCc1cccnc1)c1ccc(N2CCCC2)nc1NCCc1ccccn1 [Compound 33, {2-[(2-(2-pyridyl)ethyl)amino]-6-pyrrolidinyl(3-pyridyl)}-N-(3-pyridylmethyl)carboxamide] | 32800
CC1CCN(c2ccc(C(=O)NCc3cccnc3)c(NCCc3ccccn3)n2)CC1 [Compound 34, {6-(4-methylpiperidyl)-2-[(2-(2-pyridyl)ethyl)amino](3-pyridyl)}-N-(3-pyridylmethyl)carboxamide] | 14300
O=C(NCc1cccnc1)c1ccc(C2=NCCO2)nc1NCCc1cccc(F)c1 [Compound 35, (2-{[2-(3-fluorophenyl)ethyl]amino}-6-(1,3-oxazolin-2-yl)(3-pyridyl))-N-(3-pyridylmethyl)carboxamide] | 1500
NCc1ncccc1CNC(=O)c1ccc(N2CC[C@@H](O)C2)nc1NCCc1cccc(F)c1 [Compound 36, (6-((3R)-3-hydroxypyrrolidinyl)-2-{[2-(3-fluorophenyl)ethyl]amino}(3-pyridyl))-N-{[2-(aminomethyl)(3-pyridyl)]methyl}carboxamide] | 327
NCc1ncccc1CNC(=O)c1ccc(C2=CCCC2)nc1NCCc1cccc(F)c1 [Compound 37, N-{[2-(aminomethyl)(3-pyridyl)]methyl}(6-cyclopent-1-enyl-2-{[2-(3-fluorophenyl)ethyl]amino}(3-pyridyl))carboxamide] | 14.6
NCc1ncccc1CNC(=O)c1ccc(N2CC[C@H](F)C2)nc1NCCc1cccc(F)c1 [Compound 38, (6-((3S)-3-fluoropyrrolidinyl)-2-{[2-(3-fluorophenyl)ethyl]amino}(3-pyridyl))-N-{[2-(aminomethyl)(3-pyridyl)]methyl}carboxamide] | 88.2
NCc1ncccc1CNC(=O)c1ccc(N2CC[C@@H](F)C2)nc1NCCc1cccc(F)c1 [Compound 39, (6-((3R)-3-fluoropyrrolidinyl)-2-{[2-(3-fluorophenyl)ethyl]amino}(3-pyridyl))-N-{[2-(aminomethyl)(3-pyridyl)]methyl}carboxamide] | 31.3
NCc1ncccc1CNC(=O)c1ccc(N2CCCCC2)nc1NCCc1cccc(F)c1 [Compound 40, N-{[2-(aminomethyl)(3-pyridyl)]methyl}(2-{[2-(3-fluorophenyl)ethyl]amino}-6-piperidyl(3-pyridyl))carboxamide] | 65.6
NCc1ncccc1CNC(=O)c1ccc(N2CCCC2)nc1NCCc1cccc(F)c1 [Compound 41, N-{[2-(aminomethyl)(3-pyridyl)]methyl}(2-{[2-(3-fluorophenyl)ethyl]amino}-6-pyrrolidinyl(3-pyridyl))carboxamide] | 29.7
CNC(=O)CNC(=O)c1ccc(C2=CCN(C(=O)OC)CC2)nc1NCCc1cccc(F)c1 [Compound 43, methyl 4-(6-{[2-(3-fluorophenyl)ethyl]amino}-5-{N-[(N-methylcarbamoyl)methyl]carbamoyl}-2-pyridyl)-1,2,5,6-tetrahydropyridinecarboxylate] | 627
COC(=O)N[C@@H]1CCN(c2ccc(C(=O)NCc3cccnc3)c(NCCc3cccc(F)c3)n2)C1 [Compound 44, N-[(3R)-1-(6-{[2-(3-fluorophenyl)ethyl]amino}-5-[N-(3-pyridylmethyl)carbamoyl](2-pyridyl))pyrrolidin-3-yl]methoxycarboxamide] | 4500
O=C(NCc1cccnc1)c1ccc(N2CCCCC2)nc1NCCc1ccccn1 [Compound 45, {6-piperidyl-2-[(2-(2-pyridyl)ethyl)amino](3-pyridyl)}-N-(3-pyridylmethyl)carboxamide] | 13200
N[C@@H]1CCN(c2ccc(C(=O)NCc3cccnc3)c(NCCc3cccc(F)c3)n2)C1 [Compound 46, (6-((3R)-3-aminopyrrolidinyl)-2-{[2-(3-fluorophenyl)ethyl]amino}(3-pyridyl))-N-(3-pyridylmethyl)carboxamide] | 35500
O=C(NCc1cccnc1)c1ccc(N2CC=CCC2)nc1NCCc1cccc(F)c1 [Compound 47, (2-{[2-(3-fluorophenyl)ethyl]amino}-6-(1,2,5,6-tetrahydropyridyl)(3-pyridyl))-N-(3-pyridylmethyl)carboxamide] | 687
O=C(NCc1cccnc1)c1cc(Cl)c(N2CCCC2)nc1NCCc1cccc(F)c1 [Compound 48, (5-chloro-2-{[2-(3-fluorophenyl)ethyl]amino}-6-pyrrolidinyl(3-pyridyl))-N-(3-pyridylmethyl)carboxamide] | 234
N#Cc1cc(C(=O)NCc2cccnc2)c(NCCc2cccc(F)c2)nc1N1CCCC1 [Compound 49, (5-cyano-2-{[2-(3-fluorophenyl)ethyl]amino}-6-pyrrolidinyl(3-pyridyl))-N-(3-pyridylmethyl)carboxamide] | 165
COC(=O)N1CCN=C1c1ccc(C(=O)NCc2cccnc2)c(NCCc2cccc(F)c2)n1 [Compound 50, methyl 2-(6-{[2-(3-fluorophenyl)ethyl]amino}-5-[N-(3-pyridylmethyl)carbamoyl]-2-pyridyl)-2-imidazolinecarboxylate] | 21200
N#CN1CCN=C1c1ccc(C(=O)NCc2cccnc2)c(NCCc2cccc(F)c2)n1 [Compound 51, (6-(1-cyano(2-imidazolin-2-yl))-2-{[2-(3-fluorophenyl)ethyl]amino}(3-pyridyl))-N-(3-pyridylmethyl)carboxamide] | 435
NCCCN1C(=O)CC[C@@H]1CNC(=O)c1cc(F)c(N2CCCC2)nc1NCCc1cccc(F)c1 [Compound 52, N-{[(2R)-1-(3-aminopropyl)-5-oxopyrrolidin-2-yl]methyl}(5-fluoro-2-{[2-(3-fluorophenyl)ethyl]amino}-6-pyrrolidinyl(3-pyridyl))carboxamide] | 119
NCc1ncccc1CNC(=O)c1cc(F)c(N2CC[C@@H](F)C2)nc1NCCc1cccc(F)c1 [Compound 53, (6-((3R)-3-fluoropyrrolidinyl)-5-fluoro-2-{[2-(3-fluorophenyl)ethyl]amino}(3-pyridyl))-N-{[2-(aminomethyl)(3-pyridyl)]methyl}carboxamide] | 23
CC(C)(C)OC(=O)NCc1ncccc1CNC(=O)c1cc(F)c(N2CC[C@@H](O)C2)nc1NCCc1cccc(F)c1 [Compound 54, (6-((3R)-3-hydroxypyrrolidinyl)-5-fluoro-2-{[2-(3-fluorophenyl)ethyl]amino}(3-pyridyl))-N-[(2-{[(tert-butoxy)carbonylamino]methyl}(3-pyridyl))methyl]carboxamide] | 6780
NCc1ncccc1CNC(=O)c1cc(F)c(N2CC[C@@H](O)C2)nc1NCCc1cccc(F)c1 [Compound 55, (6-((3R)-3-hydroxypyrrolidinyl)-5-fluoro-2-{[2-(3-fluorophenyl)ethyl]amino}(3-pyridyl))-N-{[2-(aminomethyl)(3-pyridyl)]methyl}carboxamide] | 125
